Experimental data taken from patent publication US10300070B2, “Metabolically-activated drug conjugates to overcome resistance in cancer therapy” (The Brigham and Women's Hospital, Inc., priority 2014, dated 2019).

Tests used:
CD44v6 and EGFR = assay: CD44/CD44v6-EGFR immunocomplex by immunoprecipitation and western blot; assay type: cell-based; conditions: MDA-MB-231 cells; docetaxel sublethal dose (10 nM), with or without erlotinib
Method: Laemli sample buffer was prepared as a 5× solution containing □-mercaptoethanol as a reducing agent. Immunoprecipitaion was performed using both classic and direct IP kits purchased from Pierce following manufacturer protocols (Thermo Fisher inc. Rockford, Ill.). Briefly, cell lysates were prepared using IP/Lysis Buffer (Thermo Fisher inc. Rockford, Ill.) in the presence of 2× HALT protease/phosphatase inhibitor cocktail (Thermo Fisher inc. Rockford, Ill.). […] Direct immunoprecipitation was performed following manufacturer protocol. […] Protein samples were resolved by SDS-PAGE and transferred to PVDF membranes prior to incubation at 4 C with indicated primary antibodies; NHE-1, GLUT-1 and cytoplasmic domain-targeting EGFR were purchased from Santa Cruz Biotech (Santa Cruz, Calif.). p70S6K and pp70S6K, mTOR and pMTOR, pERM and ERM, Ezrin and pEzrin, pAKT and AKT, pPRAS40 and PRAS40, EGFR and pEGFR antibodies cleaved caspase-3 and β-Actin were purchased from cell signaling technology (Cambridge, Mass.). EGFR and CD44v6 neutralizing antibodies were purchased from R&D (Minneapolis, Minn.). […] Optical densities of western blots were measured using ImageJ open source software (National Institutes of Health) and validated using Adobe CS5.

tumor tissue = assay: Whole tissue glucose levels from tumor homogenate after intratumoral injection; assay type: in vivo, mice; conditions: docetaxel intratumoral injection, within 12 hours post-administration
Method: (§1) 1 million 4T-1 mouse mammary carcinoma cells suspended in 100 μL PBS were injected per left flank of 5-6 week old Balb/C (heterotopic) or mammary fat pad (orthotopic). Docetaxel (DTX) was dissolved in pure Ethanol at a concentration of 50 mg/ml mixed 1:1 with Polysorbate 80 (Tween 80) and brought to a final working concentration with PBS. Tumor volumes were assessed by the following formula: (Width×Width×length)/2 and values were utilized to calculate tumor specific growth rate (SGR) by the algorhythm (ln [V2/V1]/[t2−t1)] where V=volume and t=time in days^64. For in vivo analysis of 2-NBDG uptake, mice were treated as indicated (i.e. Docetaxel intratumoral or intravenously) and monitored until tumors reached ˜300 mm^3. Subsequently, mice were administered a 10 mg/kg i.v. injection of 2-NBDG 2 hours prior to sacrificing and harvesting tumors for confocal microscopic analysis by frozen section (described below). […] Glucose quantitation (mg/dL) was measured using the onetouch lifescan glucose monitor (Life Scan, Inc. Militipas, Calif.) by calculating mg of glucose per volume of tissue homogenate (in PBS) and normalized as a ratio of mg/dL of glucose to mg of tissue homogenized. Typically, >250 mg of tissue was homogenized in 50 μL of PBS to achieve a readable output.

residual tumor tissue = assay: Total intratumoral GSH in residual tumor of syngeneic mammary carcinoma; assay type: in vivo, mice; conditions: DTX 10 mg/kg i.v., vs vehicle control cohorts
Method: G) Total intratumoral GSH obtained from residual tumor tissue homogenate of a syngeneic mammary carcinoma treated with vehicle or DTX (10 mg/kg i.v.). N=4 groups, ***p<0.001.
In vitro detection of glucose uptake was performed using 2-(N-7-Nitrobenz-2-oxa-1,3-diazol-4-yl)Amino)-2-Deoxyglucose (2-NBDG) (Invitrogen, Carlsbad Calif.), dissolved in DMSO to 50 mM. Cells were pre-treated with kinase inhibitors or vehicle for 3 hours in glucose- and phenol red-free media before addition of 50 μM 2-NBDG and subsequently read by FACS ex/em 488/535 nm. ROS was determined by pre-loading cells with CM-DCFDA (1 μM), washed 2 times with PBS and subsequently treated with H2O2 or vehicle; when kinase inhibitors were included in treatment, cells were first incubated with inhibitor for 3 hours prior to CM-DCFDA loading. Fluorescence was then determined by FACS ex/em 488/535 nm. For the following assays, cells were trypsinized and counted by Nexcelom cell counter (Lawrence, Mass.) prior to being subjected to analysis in order to achieve a quantitative value per cell: Reduced glutathione was determined using a colorimetric glutathione recycling system by DTNB following manufacturer protocol (Biovision, Milpitas Calif.). […] Protein synthesis was measured by two means 1. […] Fluorescence was detected by FACS as described below. […] GFP protein translation was determined by fluorescent microscopy. […]

CD44 and GLUT1 = assay: Confocal microscopy of CD44 and GLUT-1 in residual tumors, orthotopic syngeneic mammary carcinoma model (4T-1); assay type: in vivo, mice; conditions: 72 hours after docetaxel at MTD (10 mg/kg i.v.) vs vehicle
Method: as §1, with “output. […]” for “output.”

In the case of `CC(=O)O[C@@]12CO[C@@H]1C[C@H](O)[C@@]1(C)C(=O)[C@H](O)C3=C(C)[C@@H](OC(=O)[C@H](O)[C@@H](NC(=O)OC(C)(C)C)c4ccccc4)C[C@@](O)([C@@H](OC(=O)c4ccccc4)[C@H]21)C3(C)C` [docetaxel], the “immunocomplex between CD44v6 and EGFR” value (CD44v6 and EGFR) is reported as “induced”, the “whole tissue glucose levels in tumor” value (tumor tissue) is reported as “significantly higher” and the “whole cell GSH in residual tumor” value (residual tumor tissue) is reported as “significant global increase”. For the same molecule, the “expression of CD44 and GLUT1 in residual tumors” value (CD44 and GLUT1) was “enhanced expression of both CD44 and GLUT1”.
